Measurements: patent publication US20050163879A1, “Composition for preventing or treating dementia comprising a hydroxycinnamic acid derivative or an extract of a plant of genus Angelicae containing same” (Scigenic Co. Ltd. Biosynergen, Inc., priority 1999, published 2005)
Blank lines part the entries; values can stand above or below the compound they belong to.

Legend:
[1] = test system: mice administered with β-amyloid (1-42); assay: Passive avoidance test in mice injected with β-amyloid (1-42) into the cerebral ventricle; assay type: in vivo, mouse; conditions: for dementia-preventive effect in passive avoidance test: FIGS. 7A and 7B
Protocol: (§1) The administration of β-amyloid (1-42) to a mouse was carried out in accordance with the method described by Laursen & Belknap (J. Pharmacol. Methods, 16, 355-357 (1986)). Specifically, 5 μl of phosphate-buffered saline containing 1.85 μg of β-amyloid (1-42) was put in a 50 μl Hamilton syringe fitted with a 26 gauge needle, the tip of the needle was inserted into the bregma of the mouse and then the β-amyloid (1-42) solution was administered thereto. Each mouse of a control group received an equal amount of β-amyloid (42-1) in place of β-amyloid (1-42). A passive avoidance test was carried out at days 1-2 (day 1: training, day 2: test) and a Y-maze test, at days 3-4 (day 3: training, day 4: test) after the administration.
In order to examine the learning and memory-retention ability of a mouse, a passive avoidance test was carried out in accordance with the method described in Song et al., J. Neurochem., 71, 875-878 (1998), as follows.
A passive avoidance case equipped with a light room and a dark room was prepared, the floor of the dark room being designed to deliver an electrical shock to a test animal. First, a mouse was put in the light room and, upon entering the dark room, it received an electrical shock at 0.25 mA for 1 sec. Twenty-four hours after the training, the mouse was put in the light room again and the time it took to enter the dark room was measured as a passive avoidance time. The maximum time was set at 300 sec., i.e., in case when the mouse took more than 300 sec. to enter the dark room, the passive avoidance time was determined to be 300 sec.
Forty 4- to 5-week old mice each weighing 20 to 25 g were divided into four groups of equal number. The Angelicae gigas Nakai extract prepared in Example 1 was dissolved in water to concentrations of 0.08% (w/v) and 0.1% (w/v), respectively, […] the solution/mouse. The mice of the other two groups were provided with normal drinking water for 4 weeks. Thereafter, the mice of one of the two normal drinking water groups were administered into their cerebral ventricle with 1.85 μg of β-amyloid (42-1) (“control group”) and the mice of the remaining three groups, with β-amyloid (1-42) (Aβ1-42), as in Reference Example 1. Then, a passive avoidance test was carried out for each group of mice as in Reference Example 2 and the data attained were averaged for each group.
Fifty 4- to 5-week old mice each weighing 20 to 25 g were divided into five groups by equal number. Ferulic acid was dissolved in water to concentrations of 0.002% (w/v), 0.004% (w/v) and 0.006% (w/v), respectively, […] the solution/mouse. The mice of the other two groups were provided with normal drinking water for 4 weeks. Thereafter, the mice of one of two normal drinking water groups were administered into their cerebral ventricle with 1.85 μg of β-amyloid (42-1) (“control group”) and the mice of the remaining four groups, with β-amyloid (1-42)(Aβ1-42), as in Reference Example 1. Then, a passive avoidance test was carried out for each group of mice as in Reference Example 2 and the data attained were averaged for each group.
Forty 4- to 5-week old mice each weighing 20 to 25 g were divided into four groups of equal number. Decursinol was dissolved in corn oil, mixed with a mouse fodder, and the mice of two groups were provided with the resulting fodder for 4 weeks at a daily dose of 7.5 mg decursinol/kg or 15 mg decursinol/kg. […]

[2] = test system: mice administered with β-amyloid (1-42); assay: Y-maze test in mice injected with β-amyloid (1-42) into the cerebral ventricle; assay type: in vivo, mouse; conditions: for alternation behavior (%): compared with β-amyloid (1-42) only group
Protocol: as §1
Spontaneous alternation behavior of a mouse was examined by a Y-maze test in accordance with the method described in Starter et al., Psychopharmacology, 94, 491-495 (1988) as follows.
The Y-maze consisted of three arms shaped like Y. A test mouse was placed in one of the arms such that it faced the arm's terminal and allowed to roan freely through the three arms for […]. The number of alternation was determined by counting the number of occasions the mouse passed the three arms consecutively. Spontaneous alternation behavior was determined as the percentage of the alternation number based on the total number of arm entries.
Further, Y-maze tests were carried out employing the above-prepared mice as in Reference Example 3.
Forty 4- to 5-week old mice each weighing 20 to 25 g were divided into four groups of equal number. Decursinol was dissolved in corn oil, mixed with a mouse fodder, and the mice of two groups were provided with the resulting fodder for 4 weeks at a daily dose of 7.5 mg decursinol/kg or 15 mg decursinol/kg. The mice of the other two groups were provided with a normal mouse fodder containing an equal amount of corn oil as above for 4 weeks. Thereafter, the mice of one of the two normal fodder groups were administered, into their cerebral ventricle, with 1.85 μg of β-amyloid (42-1) (“control group”) and the mice of the remaining three groups, with β-amyloid (1-42) (Aβ1-42), as in Reference Example 1. Then, a passive avoidance test and a Y-maze test were carried out for each group of mice as in Reference Examples 2 and 3, respectively, and the data attained were averaged for each group.

[3] = test system: choline acetyltransferase (ChAT); assay: Immunohistochemical staining of ChAT in septal nucleus 5 days after β-amyloid; assay type: in vivo, mouse; conditions: 0.006% (w/v) ferulic acid for 4 weeks, then β-amyloid (1-42), vs β-amyloid (1-42) only, FIG. 9c
Protocol: Three groups of mice were administered with ferulic acid and/or β-amyloid in accordance with the method of (1). 5 days after the administration of β-amyloid, immunohistochemical staining was carried out according to the method of (1) except for employing 1:750 dilution of anti-choline-acetyltransferase (ChAT) antibody (Chemicon) in order to stain CHAT, an enzyme for acetylcholine synthesis, in the septal nucleus wherein acetylcholine neurons are distributed.

mouse cerebral neurons = assay: β-amyloid (1-42)-induced leakage of lactate dehydrogenase (LDH) from primary mouse cortical culture; assay type: cell-based; conditions: 100 μM ferulic acid 30 minutes before 25 μM β-amyloid (1-42); 24 and 48 hours; vs β-amyloid (1-42) group; FIG. 10
Protocol: In accordance with the method of Wie et al. (Neurosci. Lett., 225: 93-96 (1997)), glia was cultured from cells of the cerebral cortex of a mouse and neurons of mouse cerebrum were cultured by employing the glia as a substrate.
The culture of mouse cerebral neurons was divided into three groups. Neurons of one group received no treatment (control group). Neurons of the other two groups were treated with 25 μM of β-amyloid (1-42), and one of these two groups were treated with 100 μM of ferulic acid 30 minutes before the administration of β-amyloid (1-42).
The degree of damage in neurons was determined by measuring the concentration of lactate dehydrogenase (LDH), which was released from the damaged or disrupted neurons into the culture medium, in accordance with the method of Wie et al. Samples of the culture medium were taken at 24 and 48 hours after the administration of β-amyloid (1-42), respectively, and their LDH concentrations were measured with a microplate reader.

OX-42 = assay: Immunohistochemical staining of OX-42 in pyriform cortex and amygdaloid nucleus one day after β-amyloid; assay type: in vivo, mouse; conditions: 0.006% (w/v) ferulic acid in drinking water for 4 weeks, then β-amyloid (1-42); 1 day after; vs β-amyloid (1-42) only; FIGS. 8c and 8f
Protocol: 4- to 5-week old mice each weighing 20 to 25 g was divided into three groups. Ferulic acid was dissolved in water to a concentration of 0.006% (w/v), and the mice of one group were provided with the resulting solution instead of water for 4 weeks. The mice of other two groups were provided with normal drinking water for 4 weeks. Thereafter, the mice of one of two normal drinking water groups were administered, into their cerebral ventricle, with 1.85 μg of β-amyloid (42-1) (“control group”) and the mice of the remaining two groups, with β-amyloid (1-42) (β1-42), as in Reference Example 1.
One day after the administration of β-amyloid, each of the mice was anesthetized with sodium pentobarbital and its abdomen was incised. The mouse was fixed by passing 4% paraformaldehyde through its left ventricle and its brain was excised.
In accordance with the method described in Cho et al., J. Comp. Neurol., 369: 264-276 (1996), a section was prepared from the excised brain and immunohistochemical staining was carried out in order to stain […] in the pyriform cortex and the amygdaloid nucleus by employing 1:500 dilution of anti-OX-42 antibody (Halan (Sera-Lab)).

SMILES: CC1(C)Oc2cc3oc(=O)ccc3cc2C[C@@H]1O [decursinol]
- dementia-preventive effect in passive avoidance test ([1]; decursinol alone, low amount: 2 mg/kg or 3 mg/kg): no dementia-preventive effect
- decrease in passive avoidance response time due to β-amyloid (1-42) ([1]; decursinol in fodder, 7.5 mg/kg or 15 mg/kg daily for 4 weeks, FIG. 6A): prevented
- number of arm entries (measure of spontaneous movement) ([2]; decursinol 7.5 mg/kg or 15 mg/kg daily for 4 weeks, FIG. 6C): nearly the same for all groups
- alternation behavior (%) ([2]; decursinol 7.5 mg/kg or 15 mg/kg daily for 4 weeks, FIG. 6B): higher and increased dose-dependently

- LDH concentration in culture medium (mouse cerebral neurons): much lower
SMILES: COc1cc(/C=C/C(=O)O)ccc1O [ferulic acid]
- passive avoidance response time ([1]; 0.006& (w/v) ferulic acid for 1, 2, 3 and 4 weeks, FIG. 3B): becomes increasingly higher with the period of administration
- decrease in passive avoidance response time ([1]; ferulic acid 0.002%, 0.004% and 0.006% (w/v) in drinking water for 4 weeks before Aβ1-42, FIG. 3A): prevented dose-dependently
- dementia-preventive effect in passive avoidance test ([1]; ferulic acid alone, low amount: 0.002% (w/v) or 0.003% (w/v)): no dementia-preventive effect
- number of arm entries (measure of spontaneous movement) ([2]; ferulic acid, period of administration varied, FIG. 4B): nearly the same for all groups
- alternation behavior (%) ([2]; ferulic acid, period of administration varied, FIG. 4A): higher and increased in proportion to the period of administration
- ChAT staining in septal nucleus [3]: the decrease was suppressed
- OX-42 staining in pyriform cortex and amygdaloid nucleus (OX-42): much less pronounced
